Source: patent publication US20100317699A1, “USE OF HEDGEHOG AGONISTS IN THE TREATMENT OF MUSCULOSKELETAL-RELATED DISORDERS” (NOVARTIS AG, priority 2008, published 2010)
Where “and” joins values, the source holds several entries; their conditions need not be identical. Identical values can stand only once. Entries after “also recorded” stand apart in the source; their conditions may differ.

Tests used:
Cyclin D1 [1] = assay: Cyclin D1 mRNA expression in myoblasts; assay type: cell-based
Description: (§1) RNA and qRT-PCR. For analysis of gene expression, cells were treated with vehicle (DMSO) or 10 nM Shh-Ag for 24 hours. Total RNA was isolated with RNEasy Miniprep Kit (Qiagen), DNAse treated (RQ1, Promega) and reverse transcribed (iScript, Biorad) according to manufacturers instructions. Quantitative PCR was performed using Taqman Gene Expression Assays (Applied Biosystems) in an ABI7500 Fast system as per manufacturer's instructions. Gene expression changes were calculated using the comparative ΔΔCT method.

Cyclin D1 [2] = assay: Cyclin D1 protein levels, Western blot densitometry; assay type: cell-based; conditions: rSHH 1 μg/mL; densitometric scores relative to vehicle=100
Description: (§2) Protein expression. For details of protein extraction and analysis, please see Supplementary Methods online. Antibodies used for Western are rabbit polyclonal antibodies against Gli1, total Akt, phosphorylated Akt-Ser473 (Cell Signaling) and Cyclin D1 (Abeam).
(§3) Protein Expression. Cells were collected in lysis buffer (20 mM Tris, pH 7.5, 150 mM NaCl, 1 mM EDTA, 1 mM EGTA, 1% Nonidet NP-40, 1 mM β-glycerol phosphate, 1 mM Na3VO4, 1 μg/ml leupeptin, and 1 mM PMSF) and measured for protein concentration with a BCA protein assay kit (Pierce). Electrophoretic separation was performed utilizing 20-60 μg of protein on 4-12% mini-gels (Invitrogen). Proteins were transferred to a PVDF membrane, blocked in 5% blotto [5% powdered milk in TBST (Tris-buffered saline, 1% Tween 20)] for 1 hr followed by an overnight incubation at 4° C. with primary antibody. After overnight incubation, membranes were washed for 30 min in TBST and then probed with anti-rabbit antibody for 45 min at room temperature. After another 30 min of washing in TBST, the blots were developed with ECL. Once the appropriate image was captured, membranes were stained with Coomassie blue to verify equal loading in all lanes. Densitometric measurements were carried out using AlphaEase software (Alpha Innotech).

Gli1 [3] = assay: Gli1 mRNA levels in myotubes; assay type: cell-based; conditions: 10 μM, 24 hours
DMD^MDX mice = assay: Intramuscular injection into DMD MDX mouse skeletal muscle, BrdU/Pax7 staining; assay type: in vivo; conditions: 500 μM IM once per day for two days
Description: (§4) FIG. 3 is a graphic depiction of the design of in vivo experiments, further detailed herein. 6 to 8-week old wildtype (WT), DMD^MDX, or WT cardiotoxin-injured mice (Ctx-inj) received two consecutive bilateral IM injections of either vehicle (10% DMSO/PBS), or Shh-Ag (500 μM) into tibialis anterior (TA) or gastrocnemius (GA) muscles, followed by an IP injection of BrdU. Mice were sacrificed and muscles were then collected 3 or 7 days following ctx-injury for immunostaining (TA) or FACS analysis (GA); n=4 for all groups.
(§5) Mice. All mouse protocols were approved by the Animal Care and Use Committee of Novartis Institutes for BioMedical Research. Wild-type (C57BL/6J) and C57BL/10 DMD^MDX mice were obtained from Jackson Labs. All analyses were performed on male mice approximately 6-8 weeks of age.
(§6) Shh-Ag treatment. 20 μl (TA) or 50 μl (GA) of vehicle (10% DMSO/PBS) or 500 μM Shh-Ag was injected into the respective tibialis anterior or gastrocnemius muscles once per day for two consecutive days.
(§7) BrdU treatment. […] Three random images from four replicate experiments were analyzed for total cell (Dapi) and BrdU+ cell number. […]
(§8) Immunostaining. […] Images were obtained using an ScanScope XT scanner and analyzed using Aperio ImageScope 6.25 software (Aperio Technologies). […]

isolated satellite cells = assay: Isolated satellite cell proliferation, total cell number and BrdU incorporation; assay type: cell-based, mouse; conditions: 48 hr treatment, versus vehicle
Description: (§9) Cells. TM3 and C2C12 cells were obtained from ATCC, propagated according to manufacturer's instructions, and maintained at subconfluence. Both primary myoblasts and isolated satellite cells were grown in Ham's F10 media supplemented with 20% Fetal calf serum and 1% Penicillin/Streptomycin without βFGF. All cells were plated on pre-coated collagen dishes (MatTek) or on plastic culture plates treated with rat tail collagen type I (BD).
Myoblast and Satellite cell isolation. Primary mouse myoblasts were isolated from mouse hind-limb muscles as described herein. Muscle satellite cells were isolated from hind-limb muscles of 4-6 week old C57BL/6J mice. Muscles were dissected and finely chopped with razor blades in DMEM. Chopped muscles were placed in a 50 mL Falcon tube with 30 mL of dissociation solution (0.1% Collagenase D, 0.25% Trypsin in DMEM) and agitated at 37° for 20 minutes. Following dissociation, 500 μl of fetal calf serum was added to block Trypsin activity and samples were passed through a 37 μM filter. Solutions were diluted two-fold in DMEM, passed through a […] filter, centrifuged at 1000 RPM for 15 minutes, and the subsequent pellet was re-suspended in 1% FCS/PBS. […]
as §7

Gli1 [4] = assay: Gli1 protein levels, Western blot densitometry; assay type: cell-based; conditions: rSHH 1 μg/mL; densitometric scores relative to vehicle=100
Description: as §2, §3

Cyclin D1 [5] = assay: Cyclin D1 mRNA expression in isolated SCs; assay type: cell-based
Description: as §1
Myoblast and Satellite cell isolation. Primary mouse myoblasts were isolated from mouse hind-limb muscles as described herein. Muscle satellite cells were isolated from hind-limb muscles of 4-6 week old C57BL/6J mice. Muscles were dissected and finely chopped with razor blades in DMEM. Chopped muscles were placed in a 50 mL Falcon tube with 30 mL of dissociation solution (0.1% Collagenase D, 0.25% Trypsin in DMEM) and agitated at 37° for 20 minutes. Following dissociation, 500 μl of fetal calf serum was added to block Trypsin activity and samples were passed through a 37 μM filter. Solutions were diluted two-fold in DMEM, passed through a […] filter, centrifuged at 1000 RPM for 15 minutes, and the subsequent pellet was re-suspended in 1% FCS/PBS. Syndecan 4 positive satellite cells were then isolated by fluorescent activated cell sorting (FACS) utilizing an ARIA-UV cell sorter (BD).

wild-type (WT) mice = assay: Intramuscular injection into wild-type mouse skeletal muscle, BrdU/Pax7 staining; assay type: in vivo; conditions: 500 μM IM once per day for two days
Description: as §4, §5, §6, §7, §8

[6] = test system: WT cardiotoxin-injured mice; assay: Cardiotoxin-induced muscle injury and regeneration in WT mice, staining and FACS analysis; assay type: in vivo, mouse
Description: as §4, §5
Cardiotoxin-induced regeneration. Muscle regeneration was induced by injecting 40 μl (TA) or 100 μl (GA) of cardiotoxin (10 μM Naja atra; Sigma) into the respective tibialis anterior or gastrocnemius muscles of WT C57BL/6J mice.
as §6
BrdU treatment. For treatment of isolated SCs, a 1:100 dilution of 5-bromodeoxyuridine (BrdU) labeling reagent (10 mg/mL; Invitrogen) was added to the culture media 24 hours following vehicle or Shh-Ag treatment. Cells were then incubated an additional 5 hours, fixed, probed for BrdU, mounted with Dapi containing medium (Vector Labs), and then imaged as described in Materials in Methods. Three random images from four replicate experiments were analyzed for total cell (Dapi) and BrdU+ cell number. For in vivo delivery, 100 μl of BrdU was intraperitoneally (IP) injected following the second vehicle or Shh-Ag intramuscular injection.
FACS analysis. The following antibodies were used in this study: APC-conjugated anti-CD45 (BD), PE-conjugated anti-Syndecan 4 (BD), and FITC-conjugated anti-BrdU (BioVision). Muscles from treated mice were dissected and dissociated as described. To sort satellite cells for further experimentation, […] anti-syndecan 4 was utilized to positively select cells following ARIA (BD) mediated cell sorting. […]
as §8
To quantify the induction of SC proliferation, ctx-injured and Shh-Ag treated muscle samples (GA) were collected and processed for FACS analysis. A single-cell muscle suspension was gated based on CD45− and Syndecan4+ expression, commonly used identifiers of muscle SCs, and the resultant population was then analyzed for intracellular BrdU localization (see, e.g., FIG. 4). […]

primary myoblasts = assay: Primary myoblast proliferation, PI staining and FACS analysis; assay type: cell-based, mouse
Description: as §9
Myoblast isolation. Two to three week-old male C57/BL/6J pups were used for the experiments. The mice were euthanized using CO2. Then the skin and fascia from the ankle joint up toward the hip were peeled to expose underlying muscles. The muscles (hamstring, quadriceps, tibialis anterior, extensor digitorum longus, gastrocnemius and soleus) from both legs were carefully removed, trying to any tendons and non-muscle tissues. The dissected muscles were placed in a sterile […] containing PBS and washed to remove hair and other debris. The muscles were then transferred to a sterile 35 mm^2 dish and 1.5 ml of a collagenase/dispase solution was added to digest the tissues. The tissues were mulched into a reasonably smooth pulp using sterile disposable followed by incubating at 37° C. for 12 min. They were then triturated using 5 ml plastic pipettes to homogenize the mixture. The incubation and triturating step was repeated once more. […]

Molecule | increase in Cyclin D1 mRNA expression (Cyclin D1 [1]) | Cyclin D1 protein levels (Cyclin D1 [2]) | Gli1 mRNA levels, fold increase (Gli1 [3]) | mononuclear cell infiltration (BrdU+ staining) (DMD^MDX mice) | number of Pax7−/BrdU+ cells (DMD^MDX mice) | increase in the percentage of SCs incorporating BrdU (isolated satellite cells) | Gli1 protein levels (Gli1 [4]) | increase in Cyclin D1 mRNA expression (Cyclin D1 [5]) | Pax7/BrdU fluorescent co-staining of muscle sections (wild-type (WT) mice) | BrdU staining of muscle sections (wild-type (WT) mice; vehicle sections negative) | BrdU+, centrally-aligned nuclei in longitudinal muscle sections ([6]; 7 days following ctx-injury) | percent of proliferating (BrdU+) SCs ([6]; ctx-injured GA muscle, FACS, vehicle 4.82±0.33) | percentage of Pax7 expressing SCs that are Pax7+/BrdU+ double positive ([6]; ctx-injured WT muscle, compared to vehicle control) | number of BrdU+ cells at an early stage of regeneration ([6]; single cardiotoxin injury, WT mice, 500 μM IM) | myoblast proliferation on co-treatment of Shh-Ag with IGF-1 (primary myoblasts)
CNC1CCC(N(Cc2cccc(-c3ccncc3)c2)C(=O)c2sc3c(F)ccc(F)c3c2Cl)CC1 (stereo not drawn) [Shh-Ag] | more than 50% | elevated protein expression; also recorded: increase | over 20 fold | seemed to promote even greater mononuclear cell infiltration | greatly increased | two fold increase | induction; also recorded: increase | more than 50% | Pax7+/BrdU+ double positive cells were easily seen | displayed BrdU+ precursor cells | increase in BrdU+, centrally-aligned nuclei | 10.67±1.87% and 10.6% | larger percentage | significantly increase | 
IGF-1: Insulin-like growth factor I, a known skeletal muscle mitogen signaling through PI3K/Akt |  |  |  |  |  |  |  |  |  |  |  |  |  |  | did not significantly increase
